{"source": "patent US20100298551A1", "about": "“Methods Of Producing And Sequencing Modified Polynucleotides” (priority 2005, published 2010)", "molecular_target": "T1, exo− E. coli Polymerase I, Klenow fragment (Escherichia coli, UniProt P00582, D355A/E357A)", "T1 construct": "12.5 U exo^− E. coli Polymerase I, Klenow fragment (Epicentre); purchased Epicentre", "T1 sequence (P00582 324-928 D355A/E357A)": "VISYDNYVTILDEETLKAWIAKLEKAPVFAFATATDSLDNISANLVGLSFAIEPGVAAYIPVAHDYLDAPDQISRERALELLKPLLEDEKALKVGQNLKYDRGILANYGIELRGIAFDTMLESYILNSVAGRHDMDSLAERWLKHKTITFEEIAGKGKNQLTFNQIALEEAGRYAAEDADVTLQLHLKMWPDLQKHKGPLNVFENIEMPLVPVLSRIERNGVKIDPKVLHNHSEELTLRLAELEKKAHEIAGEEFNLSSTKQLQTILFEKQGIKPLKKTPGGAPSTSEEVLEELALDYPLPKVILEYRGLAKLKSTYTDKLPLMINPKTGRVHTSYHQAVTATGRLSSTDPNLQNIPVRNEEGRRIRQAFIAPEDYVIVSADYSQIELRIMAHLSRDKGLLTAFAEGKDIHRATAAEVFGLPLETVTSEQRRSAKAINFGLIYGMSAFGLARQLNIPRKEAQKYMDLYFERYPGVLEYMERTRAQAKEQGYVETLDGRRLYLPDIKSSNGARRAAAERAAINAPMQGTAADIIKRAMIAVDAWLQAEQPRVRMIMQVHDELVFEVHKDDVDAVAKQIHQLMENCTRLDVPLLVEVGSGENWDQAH", "test": "Primer extension: incorporation of 3′ thiol-nucleoside triphosphate into a growing DNA strand by DNA polymerase", "format": "biochemical", "description": "DNA synthesis was performed on a single-stranded DNA template (5′-TTTTTTCTAAGGTAGCGACTGTCCTATACAGACTGACAAAAAAAGAGAATGAGGAACCCGGGGCAG-3′) (SEQ ID NO:1), which was labeled at its 5′ end with a dual biotin tag and was attached to a magnetic bead (FIG. 3B). Synthesis was primed using a primer (5′-CTGCCCCGGGTTCCTCATTCTCT-3′) (SEQ ID NO:2), which was complementary to a portion of the DNA template. The primer was labeled with Cy5 at its 5′ end. The DNA template contained 5 adenine nucleotides immediately downstream of the primer sequence. […]"}
{"smiles": "CSS[C@H]1C[C@H](n2cc(C)c(=O)[nH]c2=O)O[C@@H]1CO", "note": "[3′-deoxy-dithiomethyl thymidine]", "values": [{"measurement": "modified thymidine residues in the vast majority of reaction products", "setting": "higher concentration 1.0 mM (FIG. 3E)", "value": 5}, {"measurement": "number of 3′-deoxy-dithiomethyl thymidine nucleotides incorporated into the DNA product", "setting": "template with 5 adenines downstream of primer, 37° C., 4.0 min", "value": "Up to five"}]}
